Experimental data from patent US20250313563A1, “GLYCOGEN SYNTHASE KINASE 3 INHIBITORS AND USES THEREOF” (The Broad Institute, Inc., priority 2022, published 2025).
Read-outs that look alike come from different tables or passages of the source.

Columns and labels:
[1] = biological target: GSK3α (GST-full length GSK3α) (Homo sapiens (Human), UniProt P49840); experiment: GSK3α TR-FRET kinase assay; format: biochemical
Procedure, shortened: (§1)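 Compound preincubated 30 min, then 1 nM GST-full-length GSK3α or GSK3b run 100 min at ambient temperature with 200 nM biotinylated, S645-prephosphorylated glycogen synthase 631-650 peptide in Tris pH 7.5, MgCl2, DTT, BSA, 1% DMSO. ATP 4 μM (α) or 2 μM (β), or 1 mM. EDTA-quenched; Tb-anti-pSer641/streptavidin-d2 TR-FRET 665/615 ratio gave IC50.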

[2] = biological target: GSK3b (GST-full length GSK3b) (Homo sapiens (Human), UniProt P49841); experiment: GSK3b TR-FRET kinase assay; format: biochemical
Chain of GSK3b (GST-full length GSK3b) (P49841 whole entry): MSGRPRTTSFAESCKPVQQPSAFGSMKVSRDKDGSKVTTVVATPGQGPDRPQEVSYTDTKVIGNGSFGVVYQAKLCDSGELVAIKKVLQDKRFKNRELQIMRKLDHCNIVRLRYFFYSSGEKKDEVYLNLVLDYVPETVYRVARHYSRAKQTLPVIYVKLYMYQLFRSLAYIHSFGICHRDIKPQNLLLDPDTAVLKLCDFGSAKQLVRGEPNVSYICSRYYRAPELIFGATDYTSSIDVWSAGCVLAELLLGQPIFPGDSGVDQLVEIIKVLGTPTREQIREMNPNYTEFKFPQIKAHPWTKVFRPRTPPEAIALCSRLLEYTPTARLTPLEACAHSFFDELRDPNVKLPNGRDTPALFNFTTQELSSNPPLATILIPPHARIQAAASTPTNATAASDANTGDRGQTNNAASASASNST
Procedure, shortened: as §1

[3] = 1 nM GSK3α, 4 μM ATP, 30 minute preincubation, Table 16, read-out: GSK3-A TR-FRET BIOCHEMICAL (TR-FRET)
[4] = read-out: GSK3-A (TR-FRET 1 mM ATP), GMean, IC50, 1 mM ATP, geometric mean
[5] = 1 nM GSK3b, 2 μM ATP, 30 minute preincubation, Table 16, read-out: GSK3-B TR-FRET BIOCHEMICAL (TR-FRET)
[6] = read-out: GSK3-B (TR-FRET 1 mM ATP), GMean, IC50, 1 mM ATP, geometric mean
[7] = 1 nM GSK3α, 4 μM ATP, 30 minute preincubation, Table 16, read-out: GSK3-A TR-FRET BIOCHEMICAL (TR-FRET), IC50
[8] = 1 nM GSK3b, 2 μM ATP, 30 minute preincubation, Table 16, read-out: GSK3-B TR-FRET BIOCHEMICAL (TR-FRET), IC50
[9] = 1 nM GSK3α, 4 μM ATP, 30 minute preincubation, geometric mean, read-out: GSK3-A TR-FRET BIOCHEMICAL (TR-FRET), GMean, IC50
[10] = 1 nM GSK3b, 2 μM ATP, 30 minute preincubation, geometric mean, read-out: GSK3-B TR-FRET BIOCHEMICAL (TR-FRET), GMean, IC50
[11] = 1 nM GSK3α, 4 μM ATP, 30 minute preincubation, read-out: GSK3-A TR-FRET BIOCHEMICAL (TR-FRET), IC50
[12] = 1 nM GSK3b, 2 μM ATP, 30 minute preincubation, read-out: GSK3-B TR-FRET BIOCHEMICAL (TR-FRET), IC50
[13] = GSK3-A (TR-FRET 1 mM ATP), GMean, IC50, 1 mM ATP, geometric mean
[14] = GSK3-B (TR-FRET 1 mM ATP), GMean, IC50, 1 mM ATP, geometric mean

Chain of GSK3α (GST-full length GSK3α) (P49840 whole entry): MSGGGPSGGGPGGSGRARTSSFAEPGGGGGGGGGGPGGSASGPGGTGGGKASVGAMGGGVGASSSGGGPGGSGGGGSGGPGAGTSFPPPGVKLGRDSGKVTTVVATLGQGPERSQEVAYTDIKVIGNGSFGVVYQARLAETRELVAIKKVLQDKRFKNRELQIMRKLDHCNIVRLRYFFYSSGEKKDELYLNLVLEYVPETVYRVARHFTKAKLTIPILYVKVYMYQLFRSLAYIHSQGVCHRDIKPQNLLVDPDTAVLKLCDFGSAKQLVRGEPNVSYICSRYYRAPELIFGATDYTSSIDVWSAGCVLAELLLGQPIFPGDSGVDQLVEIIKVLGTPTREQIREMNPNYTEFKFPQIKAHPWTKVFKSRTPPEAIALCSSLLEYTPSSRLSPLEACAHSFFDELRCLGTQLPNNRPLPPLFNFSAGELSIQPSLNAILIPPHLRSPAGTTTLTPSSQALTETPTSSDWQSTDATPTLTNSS

Row | SMILES | IC50 [1, 3] | IC50 [2, 5] | IC50 [1, 7] | IC50 [2, 8] | also measured
1 | CCC1(c2cccc(-c3ccncc3F)c2)C2=C(CC(C)(C)CC2=O)Nc2n[nH]c(C(F)(F)F)c21 (stereo not shown) [Compound 945528] | ≤ 0.1 µM | ≤ 0.1 µM | – | – | IC50 [1, 4]: ≤ 0.1 µM; IC50 [2, 6]: 0.1 to 1 µM
2 | CC[C@@]1(c2cccc(-c3c(C)nn(C)c3C)c2)C2=C(CC(C)(C)CC2=O)Nc2n[nH]cc21 [Compound 911990] | – | – | ≤ 0.1 µM | ≤ 0.1 µM | IC50 [1, 4]: ≤ 0.1 µM; IC50 [2, 6]: 0.1 to 1 µM
3 | CCc1cccc(N(C)c2cccc(C3(CC)C4=C(CC(C)(C)CC4=O)Nc4n[nH]cc43)c2)n1 (stereo not shown) [Compound 944023] | ≤ 0.1 µM | 0.1 to 1 µM | – | – | –
4 | O=C1CC(C(F)(F)F)CC2=C1C1(CCOCC1)c1c[nH]nc1N2 (stereo not shown) [Compound 889572] | – | – | 0.1 to 1 µM | 0.1 to 1 µM | –
5 | Cn1ccc(S(=O)(=O)N2CCCC3(CC2)C2=C(CC(C)(C)CC2=O)Nc2n[nH]cc23)n1 (stereo not shown) [Compound 917138] | ≤ 0.1 µM | ≤ 0.1 µM | – | – | –
6 | CCC1(c2cccc(-c3ccnc4c3CCC4)c2)C2=C(CC(C)(C)NC2=O)Nc2n[nH]c(C)c21 (stereo not shown) [Compound 947675] | – | – | – | – | IC50 [1, 9]: ≤ 0.1 µM; IC50 [2, 10]: 0.1 to 1 µM
7 | CC[C@@]1(c2ccccc2)C2=C(CC(C)(C)[C@H](F)C2=O)Nc2n[nH]cc21 [Compound 826769] | – | – | – | – | IC50 [1, 9]: > 5 µM; IC50 [2, 10]: > 5 µM
8 | CCC1(c2cccc(C(F)(F)F)c2)C2=C(CC(C(C)(C)C)NC2=O)Nc2n[nH]cc21 (stereo not shown) [Compound 945921] | – | – | – | – | IC50 [1, 11]: 1 to 5 µM; IC50 [2, 12]: > 5 µM
9 | C[C@H]1COCC[C@@]12C1=C(CC(C)(C)CC1=O)Nc1n[nH]cc12 [Compound 924309] | – | – | 1 to 5 µM | > 5 µM | –
10 | CC1(C)CC(=O)C2=C(C1)Nc1n[nH]cc1C21CC2(CCOCC2)C1 [Compound 874534] | – | – | – | – | IC50 [1, 11]: ≤ 0.1 µM; IC50 [1, 13]: 0.1 to 1 µM; IC50 [2, 12]: ≤ 0.1 µM; IC50 [2, 14]: 0.1 to 1 µM
11 | CC[C@@]1(c2cccc(N(C)c3ccccn3)c2)C2=C(CC(C)(C)CC2=O)Nc2n[nH]cc21 [Compound 875608] | – | – | – | – | IC50 [1, 9]: 1 to 5 µM; IC50 [2, 10]: > 5 µM
12 | CCC1(c2cccc(C(F)(F)F)c2)C2=C(CCN(c3ccc(C)cc3)C2=O)Nc2n[nH]cc21 (stereo not shown) [Compound 948241] | – | – | – | – | IC50 [1, 9]: ≤ 0.1 µM; IC50 [2, 10]: 0.1 to 1 µM
13 | CC1(C)CC(=O)C2=C(C1)Nc1n[nH]cc1C21CCN(c2ccncn2)CC1 [Compound 874529] | 0.1 to 1 µM | 1 to 5 µM | – | – | –
14 | CC1(C)CC(=O)C2=C(C1)Nc1n[nH]cc1C21CCN(S(=O)(=O)c2cc(Cl)ccc2Cl)CC1 [Compound 948122] | ≤ 0.1 µM | 0.1 to 1 µM | – | – | –
15 | CC[C@@]1(c2cccc(C(F)(F)F)c2)C2=C(Nc3n[nH]cc31)c1ccccc1C2=O [Compound 949742] | – | – | 0.1 to 1 µM | 0.1 to 1 µM | –
16 | CC[C@]1(c2cccc(-c3ccnn3C3CC3(F)F)c2)C2=C(CC(C)(C)NC2=O)Nc2n[nH]cc21 (stereo partly shown) [Compound 950824] | – | – | ≤ 0.1 µM | ≤ 0.1 µM | IC50 [1, 13]: 0.1 to 1 µM; IC50 [2, 14]: 0.1 to 1 µM
17 | CCC1(c2cccc(C(F)(F)F)c2)C2=C(CCN(c3nn(C)cc3C)C2=O)Nc2n[nH]cc21 (stereo not shown) [Compound 950486] | – | – | 0.1 to 1 µM | 1 to 5 µM | –
18 | CCC1(c2cccc(-c3ccnc(C)c3)c2)C2=C(CC3(CCCOC3)NC2=O)Nc2n[nH]cc21 (stereo not shown) [Compound 948153] | – | – | – | – | IC50 [1, 9]: > 5 µM; IC50 [2, 10]: > 5 µM
19 | CCC1(c2cccc(N(C)c3ncccn3)c2)C2=C(CC(C)(C)C2=O)Nc2n[nH]cc21 (stereo not shown) [Compound 952205] | – | – | 1 to 5 µM | > 5 µM | –
20 | CC1(C)CC(=O)C2=C(C1)Nc1n[nH]cc1C21CCN(S(=O)(=O)Cc2ccccc2)CC1 [Compound 929437] | – | – | – | – | IC50 [1, 11]: ≤ 0.1 µM; IC50 [1, 13]: ≤ 0.1 µM; IC50 [2, 12]: ≤ 0.1 µM; IC50 [2, 14]: 0.1 to 1 µM

Row | SMILES | IC50 [1, 3] | IC50 [2, 5] | IC50 [1, 7] | IC50 [2, 8] | also measured
21 | CC1(C)CC(=O)C2=C(C1)Nc1n[nH]cc1C21CCN(S(=O)(=O)c2ccccc2F)CC1 [Compound 901465] | ≤ 0.1 µM | ≤ 0.1 µM | – | – | IC50 [1, 13]: ≤ 0.1 µM; IC50 [2, 14]: 0.1 to 1 µM
22 | CC1(C)CC(=O)C2=C(C1)Nc1n[nH]cc1C21CCN(S(=O)(=O)c2cccc(Cl)c2)CC1 [Compound 947243] | ≤ 0.1 µM | ≤ 0.1 µM | – | – | IC50 [1, 13]: 0.1 to 1 µM; IC50 [2, 14]: 1 to 5 µM
23 | CC[C@@]1(c2cccc(-c3cnn(-c4ccccc4)c3F)c2)C2=C(CC(C)(C)NC2=O)Nc2n[nH]cc21 [Compound 949519] | – | – | > 5 µM | > 5 µM | –
24 | CC1(C)CC(=O)C2=C(C1)Nc1n[nH]cc1[C@]21C[C@@H](n2cccn2)C1 [Compound 884004] | ≤ 0.1 µM | ≤ 0.1 µM | – | – | –
25 | CCC1(c2cccc(C(F)(F)F)c2)C2=C(CNC2=O)Nc2n[nH]cc21 (stereo not shown) [Compound 917158] | 0.1 to 1 µM | 1 to 5 µM | – | – | –
26 | CCC1(c2cccc(C(F)(F)F)c2)C2=C(CC3(CCN(C)C3=O)CC2=O)Nc2n[nH]cc21 (stereo not shown) [Compound 950330] | 0.1 to 1 µM | > 5 µM | – | – | –
27 | CCc1ncc(S(=O)(=O)N2CCC3(CC2)C2=C(CC(C)(C)CC2=O)Nc2n[nH]cc23)s1 [Compound 947252] | ≤ 0.1 µM | ≤ 0.1 µM | – | – | –
28 | CC[C@@]1(c2cccc(S(=O)(=O)CC3CC3)c2)C2=C(CC(C)(C)NC2=O)Nc2n[nH]c(C(F)(F)F)c21 [Compound 949186] | – | – | 0.1 to 1 µM | 0.1 to 1 µM | –
29 | CC[C@]1(c2cccc(-c3ccnc(C)c3OC)c2)C2=C(CC(C)(C)CC2=O)Nc2n[nH]cc21 [Compound 945997] | ≤ 0.1 µM | ≤ 0.1 µM | – | – | IC50 [1, 4]: 0.1 to 1 µM; IC50 [2, 6]: 1 to 5 µM
30 | CC1(C)CC(=O)C2=C(C1)Nc1n[nH]cc1C21CC(C)(C)C1 [Compound 883864] | ≤ 0.1 µM | 0.1 to 1 µM | – | – | –
31 | CC1(C)CC(=O)C2=C(C1)Nc1n[nH]cc1C21CCN(S(=O)(=O)c2ccc(F)c(Cl)c2)CC1 [Compound 948117] | ≤ 0.1 µM | ≤ 0.1 µM | – | – | –
32 | CCC1(c2cccc(-c3ccnc(C)c3)c2)C2=C(CC(C)CC2=O)Nc2n[nH]cc21 (stereo not shown) [Compound 932638] | – | – | > 5 µM | > 5 µM | –
33 | CCC1(c2cccc(-c3ccnc4cc(OC)ccc34)c2)C2=C(CC(C)(C)NC2=O)Nc2n[nH]cc21 (stereo not shown) [Compound 948649] | – | – | – | – | IC50 [1, 9]: > 5 µM; IC50 [2, 10]: > 5 µM
34 | CCC1(c2cccc(-c3cc(C)ncc3F)c2)C2=C(CC(C)(C)CC2=O)Nc2n[nH]cc21 (stereo not shown) [Compound 927346] | – | – | ≤ 0.1 µM | ≤ 0.1 µM | IC50 [1, 4]: ≤ 0.1 µM; IC50 [2, 6]: 1 to 5 µM
35 | CC[C@]1(c2cccc(-c3cnn4c3CCCC4)c2)C2=C(CC(C)(C)NC2=O)Nc2n[nH]cc21 [Compound 947410] | – | – | – | – | IC50 [1, 9]: ≤ 0.1 µM; IC50 [1, 4]: 0.1 to 1 µM; IC50 [2, 10]: 0.1 to 1 µM; IC50 [2, 6]: > 5 µM
36 | CCC1(c2cc(N(C)C(C)=O)ccc2F)C2=C(CC(C)(C)CC2=O)Nc2n[nH]cc21 (stereo not shown) [Compound 913124] | – | – | 0.1 to 1 µM | 0.1 to 1 µM | –
37 | CC[C@@]1(c2cccc(OC(C)C)c2)C2=C(CC(C)(C)CC2=O)Nc2n[nH]cc21 [Compound 811563] | – | – | – | – | IC50 [1, 9]: 1 to 5 µM; IC50 [2, 10]: > 5 µM
38 | CC[C@@]1(c2ccccc2)C2=C(C[C@]3(CCN(C)C3=O)CC2=O)Nc2n[nH]cc21 [Compound 949759] | > 5 µM | > 5 µM | – | – | –
39 | CC1(C)CC(=O)C2=C(C1)Nc1n[nH]cc1C21CCN(S(=O)(=O)c2ccc3c(c2)CCO3)CC1 [Compound 913251] | ≤ 0.1 µM | ≤ 0.1 µM | – | – | –
40 | CC1(C)CC(=O)C2=C(C1)Nc1n[nH]cc1[C@@]21CCOC2(CCC2)C1 [Compound 897755] | – | – | – | – | IC50 [1, 11]: 1 to 5 µM; IC50 [2, 12]: 1 to 5 µM
